{"source": "patent US7666846B2", "about": "“Cholesterol-containing compounds and their use as immunogens against Borrelia burgdorferi” (The United States of America as represented by the …, priority 2003, dated 2010)", "key": {"[1]": {"tested_on": "immobilized polymixin B on agarose", "experiment": "Affinity chromatography on Detoxi-Gel Endotoxin Removing Gel", "format": "binding", "settings": "sonicated B. burgdorferi cells loaded; bound material eluted with 1% deoxycholic acid; TLC and immunolabeling", "protocol": "Affinity Chromatography—BBGL-II was also purified by affinity chromatography using Detoxi-Gel Endotoxin Removing Gel (Pierce, Rockford, Ill.). Borrelia cells were washed 5 times with PBS, resuspended in the same buffer, and disrupted by ultrasonic treatment for 30 seconds, in a Branson sonifier operated at 50% duty cycles at 100 W. Membranes were separated from the soluble fraction by centrifugation at 37000 g for 30 minutes, and the supernatant (1 ml containing 1 mg total protein) was loaded on a detoxi-gel (agarose-immobilized-polymixin B) column (0.9×10 cm). The column was washed with 10 bed-volumes of PBS. Elution of the bound material was performed by washing with 10 bed volumes of PBS containing 1% Deoxycholic acid (w/v), according to the manufacturer's instructions. The bound fraction was dialyzed against distilled water, lyophilized, and lipids were extracted as mentioned.\nThis resin consists of immobilized polymixin B on agarose, and is used for the removal of endotoxins by binding to the lipid A portion of LPS."}, "[2]": {"experiment": "Antibodies induced by BBGL-III (data not shown)", "format": "in vivo"}, "rabbits": {"tested_on": "rabbits", "experiment": "Immunization of rabbits with glycolipid, antibody titers by ELISA", "format": "in vivo, New Zealand White rabbits", "protocol": "FIG. 10 is a graph showing antibody titers of sera from rabbits immunized with the glycolipid of formula B. Antibody titers were measured by an ELISA, as described below, and represent an average of four different rabbit sera, diluted 1:100, each tested in three independent assays. Open bars, IgG titers; gray bars, IgM titers; brackets, standard deviation.\n(§1) Immunization and Immunostaining—Groups of ten female NIH Swiss albino mice (5-6 weeks old, general purpose) were immunized intraperitoneally with 2 doses of BBGL-II emulsified in complete Freund's adjuvant (first dose) or incomplete Freund's adjuvant (second dose) two weeks apart. The doses contained 10 μg BBGL-II per 0.1 ml and were administered IP in 0.1 ml. Alternatively, mice were immunized three times, 2 weeks apart, with 10 μg of BBGL-II emulsified in 0.1 ml of DMSO, squalene, or PBS. Mice were bled 2 weeks after the second dose and the sera thus obtained was kept at −20° C. until used. Rabbits (females, New Zealand White, 8 weeks old) were immunized with two doses of BBGL-II, 75 μg each, in Fruend's adjuvant, administered i.m. and i.c. in 20×0.05 ml."}, "mice": {"tested_on": "mice", "experiment": "Immunization of mice with glycolipid, antibody titers by ELISA", "format": "in vivo, NIH Swiss albino mice", "protocol": "FIG. 11 is a graph showing antibody titers of sera from ice immunized with the glycolipid of formula B. Mice (10 mice per group) were immunized as described below, with the glycolipid of formula B in Freund's adjuvant (CFA); PBS; DMSO, or squalene. Antibody titers were determined by an ELISA in sera diluted 1:100, and are represented as an average of three independent assays. Brackets, standard deviation.\nas §1"}, "[3]": {"experiment": "ELISA and TLC overlay assays of antibodies raised against the synthetic analog", "format": "in vivo", "protocol": "Immunostaining of membrane lipids was performed as previously described (15). Developed chromatogram plates, containing lipid spots, were coated with polyisobutyl-methacrylate solution (0.05% in hexane) and allowed to dry. The plates were then blocked with PBS containing 1% BSA and 0.05% tween 20 for 15 minutes, and then incubated with anti BBGL-II antiserum, diluted 1:100 in PBS-BSA buffer for 1 hour at 22° C. The plates were rinsed 5 times with PBS-BSA buffer and incubated with alkaline phosphatase-conjugated rat anti mouse IgG (KPL, MD) diluted 1:25,000 in PBS-BSA for 1 hour at 22° C. The plates were then washed, and developed using BCIP/NBT (KPL, MD)."}}, "note": "“Also recorded” adds a separate entry of the source.", "data": [{"compound": "1,2-diacyl-3-[O-α-D-galactopyranosyl]-sn-glycerol [BBGL-III]", "values": [{"measurement": "binding to Detoxi-Gel (polymixin B) column", "setting": "[1]", "result": "not bound to the column"}, {"measurement": "isotype of induced antibodies", "setting": "[2]; data not shown", "result": "mostly IgM"}, {"measurement": "induction of antibodies", "setting": "[2]; data not shown, species not stated", "result": "induced antibodies; also recorded: elicited antibodies"}, {"measurement": "reactivity of induced antibodies with BBGL-II and BBGL-III", "setting": "[2]; in vivo", "result": "reacted with both glycolipids"}]}, {"compound": "CCCCCCCCCCCCCCCC(=O)OC[C@H]1O[C@@H](O[C@H]2CC[C@@]3(C)C(=CC[C@H]4[C@@H]5CC[C@H]([C@H](C)CCCC(C)C)[C@@]5(C)CC[C@@H]43)C2)[C@H](O)[C@@H](O)[C@H]1O", "note": "[BBGL-II, cholesteryl 6-O-palmitoyl-β-D-galactopyranoside]", "values": [{"measurement": "isotype of elicited antibodies", "setting": "rabbits", "result": "mostly of the IgM isotype"}, {"measurement": "specificity of elicited antibodies", "setting": "rabbits", "result": "specific to the homologous glycolipid"}, {"measurement": "induction of antibodies", "setting": "rabbits; Freund's adjuvant", "result": "Specific antibodies were induced; also recorded: elicited antibodies"}, {"measurement": "relative immunogenicity by formulation", "setting": "mice; in PBS (likely as micelles) compared with solute in DMSO or squalene", "result": "more immunogenic than as a solute in DMSO or squalene"}, {"measurement": "isotype of elicited antibodies", "setting": "mice; mice", "result": "mostly of the IgM isotype"}, {"measurement": "specificity of elicited antibodies", "setting": "mice; mice", "result": "specific to the homologous glycolipid"}, {"measurement": "induction of antibodies", "setting": "mice; mice injected with various formulations", "result": "Specific antibodies were induced; also recorded: elicited antibodies"}, {"measurement": "antibody titers by formulation", "setting": "mice; with Freund's adjuvant, compared with PBS, DMSO, squalene", "result": "Highest titers"}]}, {"compound": "CC(C)CCCC(C)C1CCC2C3CC=C4CC(OC5OC(COC(=O)CCCCCCCCCCCCCCCN=[N+]=[N-])C(O)C(O)C5O)CCC4(C)C3CCC12C", "note": "(stereo not shown) [compound 19]", "values": [{"measurement": "antibodies raised, compared with purified native BBGL-II", "setting": "[3]", "result": "to the same extent as with the purified native BBGL-II"}]}]}
